The test system of assay [1] is MHC class-I molecule expression on B16/BL6 cells. In words: MHC class-I molecule expression-promoting activity. It counts as cell-based, mouse. The note with it: concentration giving twice-promoted MHC class-I expression relative to untreated control, 72 hours culture with compound. Here is the method:
The cyclic tetrapeptide derivatives of the present invention were investigated for their MHC class-I molecule expression-promoting actions in the following test.
The cancer cells used were mouse melanoma, B16/BL6 cells, provided by the National Cancer Institute, U.S.A. Said cells were cultured in MEM media supplemented with 10% FBS at 37° C., 5% CO2 in an humidified incubator.
A compound to be tested was preliminarily dissolved in dimethylsulfoxide (DMSO) and adjusted to a concentration of 100 mM or 10 mM (stock solution). […] Trichostatin A was used as a positive control compound for MHC class-I molecule expression-promoting action due to histone deacetylase enzyme-inhibiting activity. DMSO used as a solvent for the stock solution of a test compound would inevitably be introduced into the medium in the test; however, it had been separately confirmed not to affect the test results in amounts within the range used in the test.
Said B16/BL6 cells were inoculated on a 96-well microplate at a cell density of 5000 cells per well, each well containing 200 μAl of said medium. After culturing for 24 hours, 10 μl of a sample containing a given amount of the stock solution of a test compound which had been diluted in the medium was added and cultured for additional 72 hours. Thereafter, each well was washed once with PBS (phosphate buffered saline) and floating cells and the medium were removed. Then, the well was treated with 0.1% glutaraldehyde solution for 3 minutes to fix the cells.
The amount of MHC class-I molecule expressed on the surface of the fixed cells was measured as follows. Anti-H-2K^bD^bD^d antibody, which is an antibody against mouse MHC class-I molecule (commercially available from Meiji Milk Co., Ltd), was used as a primary antibody, biotinylated anti-mouse IgG+M (commercially available from Chemicon) was used as a secondary antibody, and streptavidin-galactosidase conjugate (commercially available from BRL) was reacted as a labeling enzyme. The amount of the thus labeled enzyme-galactosidase was measured in a microplate reader by recording the fluorescent intensity (excitation: 365 nm, fluorescence: 450 nm) resulting from the enzyme reaction product using 4-methylumbelliferyl-D-galactoside (commercially available from Nacalai Tesque) as a substrate. A fluorescence intensity measured for another well to which no test compound was added and which was treated in a similar manner without adding said primary antibody was used as a background level. The value obtained by subtracting said background level from the actually measured value (an apparent value including the background level) was defined as a true measurement reflecting the amount of expressed MHC class-I molecule.
A group without the addition of any test compound was used as a control group and the measurement of MHC class-I molecule expressed in said group was used as a standard value. The amount of MHC class-I molecule expressed at an addition concentration of each test compound was shown as a relative amount based on said standard value set to one (1). The strength of each test compound activity was compared at a concentration which provides twice-promoted expression (C×2).

The subject of assay [2] is histone deacetylase partially purified from B16/BL6 cells. In words: Inhibitory activity against histone deacetylase enzyme. Format: biochemical, mouse. The settings on record: crude enzyme from B16/BL6 cells, [3H]acetylated histone H4 peptide substrate, 37 for 3 hours; read-out: 50% inhibitory concentration. Here is the method:
The preparation of histone deacetylase was performed essentially according to the method of Yoshida et al. (J. Biol. Chem., 265, 17174-17179, 1990). The enzyme to be used was partially purified from B16/BL6 cells. The cells were suspended in HDA buffer (15 mM potassium phosphate, 5% glycerol, 0.2 mM EDTA, 1 mM 2-mercaptoethanol, pH 7.5), homogenized and centrifuged (2500× g, 10 min) to collect the nuclei, which were then homogenized in the same buffer containing 1 M (NH4)2SO4. After ultrasonic disruption and centrifugation, the concentration of (NH4)2SO4 in the collected supernatant was increased to 3.5 M to precipitate histone deacetylase. This precipitate was re-dissolved in HDA buffer, subjected to gel filtration to replace the solvent by HDA buffer, and used as a crude histone deacetylase enzyme solution.
As a substrate, a synthetic substrate peptide, [^3H]acetylated histone H4 peptide was used. This [^3H]acetylated histone H4 peptide was obtained by synthesizing the N-terminal peptide of histone H4; […] (SEQ ID NO: 1: the C-terminal being cysteine) and then radioactively acetylating with ^3H-acetic anhydride.
An assay was performed by incubating the synthetic substrate solution and the enzyme solution at 37 for 3 hours in the presence of a compound to be tested (reaction volume, 100 μl). The reaction was stopped by adding 25 μl of 1 M HCl and 0.2 M acetic acid, and [^3H]acetate cleaved by the enzyme reaction was extracted with ethyl acetate for radioactivity measurement. For a control group, the same procedure was repeated without addition of any test compound to the reaction system. Each test compound was evaluated for a concentration required to cause 50% inhibition of the histone deacetylase enzyme activity in the control group (50% inhibitory concentration).

The text below walks through data of US6825317B2, “Cyclic tetrapeptide derivatives and pharmaceutical uses thereof” (Sumitomo Pharmaceuticals Company, Limited, priority 1999, dated 2004).

Molecules are shown by their SMILES. Non-standard residues stand in square brackets, D forms with d. Residues, ends and D or L forms follow the SMILES beside them. ξ: configuration not given here. *: point of attachment. Asu = N[C@@H](CCCCCC(=O)O)C(=O)O; Cha = N[C@@H](CC1CCCCC1)C(=O)O; Ile(3ξ) = CCC(C)[C@H](N)C(=O)O; dCha = N[C@H](CC1CCCCC1)C(=O)O; Aic = NC1(C(=O)O)Cc2ccccc2C1; Ac8c = NC1(C(=O)O)CCCCCCC1; Ac7c = NC1(C(=O)O)CCCCCC1; Pip = O=C(O)[C@@H]1CCCCN1; dPip = O=C(O)[C@H]1CCCCN1; Ac6c = NC1(C(=O)O)CCCCC1; Ac5c = NC1(C(=O)O)CCCC1; Aib = CC(C)(N)C(=O)O; NHOH = ON*

With `O=C(CCCCC[C@@H]1NC(=O)[C@H]2CCCN2C(=O)[C@H](Cc2ccccc2)NC(=O)C2(CCc3ccccc32)NC1=O)NO` (single isomer, unassigned) [CHAP82, cyclo(-L-Asu(NHOH)-1Ain(f)-L-Phe-D-Pro-)], the “Twice promoting concentration Cx2” value in assay [1] is 2.69 nM. In addition, the IC50 in assay [2] was 1.12 nM.

Take `O=C(CCCCC[C@@H]1NC(=O)[C@H]2CCCN2C(=O)[C@H](Cc2ccccc2)NC(=O)C2(CCCCCC2)NC1=O)NO` [CHAP71, cyclo(-L-Asu(NHOH)-Acc7-L-Phe-D-Pro-)] (cyclo([Asu](NHOH)[Ac7c]F[dP])): in assay [1], the “Twice promoting concentration Cx2” value came to 2.76 nM. Also, the IC50 in assay [2] was 2.14 nM.

`O=C(CCCCC[C@@H]1NC(=O)[C@@H]2CCCCN2C(=O)[C@H](CC2CCCCC2)NC(=O)[C@@H](CC2CCCCC2)NC1=O)NO` [CHAP78, cyclo(-L-Asu(NHOH)-D-Cha-L-Cha-L-Pip-)] (cyclo([Asu](NHOH)[dCha][Cha][Pip])): in assay [1], the “Twice promoting concentration Cx2” value worked out at 2.35 nM. For the same compound, the IC50 in assay [2] came to 3.88 nM.

As for `O=C(CCCCC[C@@H]1NC(=O)[C@H]2CCCN2C(=O)[C@H](Cc2ccccc2)NC(=O)C2(CCCCC2)NC1=O)NO` [CHAP55, cyclo(-L-Asu(N-HOH)-Acc6-L-Phe-D-Pro-)] (cyclo([Ac6c]F[dP][Asu](NHOH))), the “Twice promoting concentration Cx2” value in assay [1] was 5.38 nM. The IC50 in assay [2] was found to be 2.19 nM.

As for `CC1(C)NC(=O)[C@H](CCCCCC(=O)NO)NC(=O)[C@H]2CCCN2C(=O)[C@H](Cc2ccccc2)NC1=O` [CHAP15, cyclo(-L-Asu(NHOH)-Aib-L-Phe-D-Pro-), reference compound] (cyclo([Aib]F[dP][Asu](NHOH))), in assay [1], the “Twice promoting concentration Cx2” value was 33.2 nM. For the same compound, in assay [2], the IC50 is 5.17 nM.

In the case of `O=C(CCCCC[C@@H]1NC(=O)[C@H]2CCCN2C(=O)[C@H](Cc2ccccc2)NC(=O)C2(CCCC2)NC1=O)NO` [CHAP54, cyclo(-L-Asu(NHOH)-Acc5-L-Phe-D-Pro-)] (cyclo([Ac5c]F[dP][Asu](NHOH))), in assay [1], the “Twice promoting concentration Cx2” value is 5.67 nM. For the same compound, in assay [2], the IC50 was found to be 3.02 nM.

Consider `O=C(CCCCC[C@@H]1NC(=O)[C@H]2CCCCN2C(=O)[C@H](CC2CCCCC2)NC(=O)[C@@H](CC2CCCCC2)NC1=O)NO` [CHAP79, cyclo(-L-Asu(NHOH)-D-Cha-L-Cha-D-Pip-)] (cyclo([Asu](NHOH)[dCha][Cha][dPip])), for which the “Twice promoting concentration Cx2” value in assay [1] came to 2.79 nM. In addition, the IC50 in assay [2] is 3.9 nM.

Take `CC(C)C[C@@H]1NC(=O)[C@@H](CC2CCCCC2)NC(=O)[C@H](CCCCCC(=O)NO)NC(=O)[C@H]2CCCCN2C1=O` [CHAP85, cyclo(-L-Asu(NHOH)-D-Cha-L-Leu-D-Pip-)] (cyclo([Asu](NHOH)[dCha]L[dPip])): in assay [1], the “Twice promoting concentration Cx2” value was 2.26 nM. Further, in assay [2], the IC50 was determined as 1.96 nM.

As to `O=C(CCCCC[C@@H]1NC(=O)[C@H]2CCCN2C(=O)[C@H](Cc2ccccc2)NC(=O)C2(CCCCCCC2)NC1=O)NO` [CHAP76, cyclo(-L-Asu(NHOH)-Acc8-L-Phe-D-Pro-)] (cyclo([Asu](NHOH)[Ac8c]F[dP])), the “Twice promoting concentration Cx2” value in assay [1] came out at 1.88 nM. Moreover, the IC50 in assay [2] is 3.99 nM.

In the case of `O=C(CCCCC[C@@H]1NC(=O)[C@H]2CCCCN2C(=O)[C@H](Cc2ccccc2)NC(=O)C2(CCCCCCC2)NC1=O)NO` [CHAP90, cyclo(-L-Asu(NHOH)-Acc8-L-Phe-D-Pip-)] (cyclo([Asu](NHOH)[Ac8c]F[dPip])), the “Twice promoting concentration Cx2” value in assay [1] worked out at 3.96 nM. The IC50 in assay [2] came to 2.75 nM.

For `CCC(C)[C@@H]1NC(=O)[C@@H](CC2CCCCC2)NC(=O)[C@H](CCCCCC(=O)NO)NC(=O)[C@@H]2CCCCN2C1=O` (stereo partly drawn) [CHAP87, cyclo(-L-Asu(NHOH)-D-Cha-L-Ile-L-Pip-)] (cyclo([Asu](NHOH)[dCha][Ile(3ξ)][Pip])), in assay [1], the “Twice promoting concentration Cx2” value stood at 5.39 nM. Moreover, the IC50 in assay [2] worked out at 1.98 nM.

Turning to `CC(C)C[C@@H]1NC(=O)[C@@H](CC2CCCCC2)NC(=O)[C@H](CCCCCC(=O)NO)NC(=O)[C@@H]2CCCCN2C1=O` [CHAP84, cyclo(-L-Asu(NHOH)-D-Cha-L-Leu-L-Pip-)] (cyclo([Asu](NHOH)[dCha]L[Pip])), the “Twice promoting concentration Cx2” value in assay [1] is recorded as 5.65 nM. The IC50 in assay [2] was found to be 2.22 nM.

Regarding `O=C(CCCCC[C@@H]1NC(=O)[C@H]2CCCCN2C(=O)[C@H](Cc2ccccc2)NC(=O)C2(Cc3ccccc3C2)NC1=O)NO` [CHAP91, cyclo(-L-Asu(NHOH)-2Ain-L-Phe-D-Pip-)] (cyclo([Aic]F[dPip][Asu](NHOH))), in assay [1], the “Twice promoting concentration Cx2” value worked out at 2.48 nM. For the same compound, in assay [2], the IC50 came out at 1.2 nM.

As for `O=C(CCCCC[C@@H]1NC(=O)[C@H]2CCCN2C(=O)[C@H](Cc2ccccc2)NC(=O)C2(CCc3ccccc32)NC1=O)NO` (single isomer, unassigned) [CHAP83, cyclo(-L-Asu(NHOH)-1Ain(s)-L-Phe-D-Pro-)], the “Twice promoting concentration Cx2” value in assay [1] is 2.29 nM. Also, in assay [2], the IC50 is 1.95 nM.

Regarding `O=C(CCCCC[C@@H]1NC(=O)[C@H]2CCCN2C(=O)[C@H](Cc2ccccc2)NC(=O)C2(Cc3ccccc3C2)NC1=O)NO` [CHAP81, cyclo(-L-Asu(NHOH)-2Ain-L-Phe-D-Pro-)] (cyclo([Aic]F[dP][Asu](NHOH))), the “Twice promoting concentration Cx2” value in assay [1] is 1.29 nM. The IC50 in assay [2] worked out at 0.98 nM.

On to `CC[C@H](C)[C@@H]1NC(=O)[C@@H](CC2CCCCC2)NC(=O)[C@H](CCCCCC(=O)NO)NC(=O)[C@H]2CCCCN2C1=O` [CHAP86, cyclo(-L-Asu(NHOH)-D-Cha-L-Ile-D-Pip-)] (cyclo([Asu](NHOH)[dCha]I[dPip])), for which, in assay [1], the “Twice promoting concentration Cx2” value was found to be 3.29 nM. Moreover, the IC50 in assay [2] was 3.14 nM.
